Laboratory results: patent publication US8551984B2, “Aminopyrimidines as SYK inhibitors” (Merck Sharp & Dohme Corp., priority 2009, dated 2013)

The compounds below were run against recombinant human SYK (GST-hSYK fusion protein) (Homo sapiens, UniProt P43405) (assay: biochemical). Conditions: rhSYK Activity (IC50), recombinant human GST-SYK 5 pM, ATP 25 μM, biotinylated substrate peptide 250 nM, HTRF, 10-dose titration.
Source text: Homogeneous Time-Resolved Fluorescence (HTRF) Assay for the Recombinant Human SYK Enzyme:

Row | Compound | IC50 [nM]
1 | Cc1cc(Nc2nccc(C(F)(F)F)n2)cc(-c2cnc(-c3cn[nH]c3)s2)c1 [Example 114, N-{3-methyl-5-[2-(1H-pyrazol-4-yl)-1,3-thiazol-5-yl]phenyl}-4-(trifluoromethyl)pyrimidin-2-amine] | < 100
2 | Cc1cc(Nc2nccc(C(F)(F)F)n2)cc(-c2cnc(-c3cnn(CCO)c3)s2)c1 [Example 115, 2-{4-[5-(3-methyl-5-{[4-(trifluoromethyl)pyrimidin-2-yl]amino}phenyl)-1,3-thiazol-2-yl]-1H-pyrazol-1-yl}ethanol] | < 100
3 | Cc1cc(Nc2nccc(OC(C)C)n2)cc(-c2cnc([C@@]3(O)CC[C@H](C(N)=O)C(C)(C)C3)s2)c1 [Example 119, (1S,4R)-4-hydroxy-2,2-dimethyl-4-[5-(3-methyl-5-{[4-(propan-2-yloxy)pyrimidin-2-yl]-amino}phenyl)-1,3-thiazol-2-yl]cyclohexanecarboxamide] | < 100
4 | COC(=O)[C@@H]1CC[C@@](O)(c2ncc(-c3cc(C)cc(Nc4nccc(C(F)(F)F)n4)c3)s2)CC1(C)C [Example 121, Methyl(1R,4S)-4-hydroxy-2,2-dimethyl-4-[5-(3-methyl-5-{[4-(trifluoromethyl)pyrimidin-2-yl]-amino}phenyl)-1,3-thiazol-2-yl]cyclohexanecarboxylate] | < 100
5 | COCCCc1ccnc(Nc2cc(C)cc(-c3cnc(C4(O)CCC(C(=O)OC(C)(C)C)CC4)s3)c2)n1 (stereo not drawn) [Example 122, tert-butyl 4-hydroxy-4-[5-(3-{[4-(3-methoxypropyl)pyrimidin-2-yl]amino}-5-methylphenyl)-1,3-thiazol-2-yl]cyclohexanecarboxylate] | 100 to 1000
6 | CC1(C)C[C@@](O)(c2ncc(-c3cc(CN)cc(Nc4nccc(C(F)(F)F)n4)c3)s2)CC[C@@H]1C(=O)O [Example 123, (1S,4R)-4-{5-[3-(aminomethyl)-5-{[4-(trifluoromethyl)pyrimidin-2-yl]amino}phenyl]-1,3-thiazol-2-yl}-4-hydroxy-2,2-dimethylcyclohexanecarboxylic acid] | < 100
7 | CC1(C)C[C@@](O)(c2ncc(-c3cc(CNC(N)=O)cc(Nc4nccc(C(F)(F)F)n4)c3)s2)CC[C@@H]1C(=O)O [Example 124, (1S,4R)-4-[5-(3-[(carbamoylamino)methyl]-5-{[4-(trifluoromethyl)pyrimidin-2-yl]amino}phenyl)-1,3-thiazol-2-yl]-4-hydroxy-2,2-dimethylcyclohexanecarboxylic acid] | < 100
8 | CC(=O)NCc1cc(Nc2nccc(C(F)(F)F)n2)cc(-c2cnc([C@@]3(O)CC[C@H](C(=O)O)C(C)(C)C3)s2)c1 [Example 125, (1S,4R)-4-[5-(3-[(acetylamino)methyl]-5-{[4-(trifluoromethyl)pyrimidin-2-yl]amino}phenyl)-1,3-thiazol-2-yl]-4-hydroxy-2,2-dimethylcyclohexanecarboxylic acid] | < 100
9 | Cc1cc(Nc2nccc(C(F)(F)F)n2)cc(-c2cnc(C3(OCCO)CCNC(=O)CC3)s2)c1 (stereo not drawn) [Example 127, 5-(2-hydroxyethoxy)-5-[5-(3-methyl-5-{[4-(trifluoromethyl)pyrimidin-2-yl]amino}phenyl)-1,3-thiazol-2-yl]azepan-2-one] | < 100
10 | Cc1cc(Nc2nccc(C(F)(F)F)n2)cc(-c2cnc(C3(C#N)CCCCC3)s2)c1 [Example 128, 1-[5-(3-methyl-5-{[4-(trifluoromethyl)pyrimidin-2-yl]amino}phenyl)-1,3-thiazol-2-yl]cyclohexanecarbonitrile] | 100 to 1000
11 | Cc1cc(Nc2nccc(C(F)(F)F)n2)cc(-c2cnc(C3(C(N)=O)CCCCC3)s2)c1 [Example 129, 1-[5-(3-methyl-5-{[4-(trifluoromethyl)pyrimidin-2-yl]amino}phenyl)-1,3-thiazol-2-yl]cyclohexanecarboxamide] | < 100
12 | Cc1cc(Nc2nccc(C(F)(F)F)n2)cc(-c2cnc(C3CCCCC3)s2)c1 [Example 130] | 100 to 1000
13 | Cc1cc(Nc2nccc(C(F)(F)F)n2)cc(-c2cnc(C(C)(O)c3ccc(S(C)(=O)=O)cc3)s2)c1 (stereo not drawn) [Example 131, 1-[4-(methylsulfonyl)phenyl]-1-[5-(3-methyl-5-{[4-(trifluoromethyl)pyrimidin-2-yl]amino}phenyl)-1,3-thiazol-2-yl]ethanol] | < 100
14 | Cc1cc(Nc2nccc(C(F)(F)F)n2)cc(-c2cnc(C3(F)CCSCC3)s2)c1 [Example 132, N-{3-[2-(4-fluorotetrahydro-2H-thiopyran-4-yl)-1,3-thiazol-5-yl]-5-methylphenyl}-4-(trifluoromethyl)pyrimidin-2-amine] | 100 to 1000
15 | Cc1cc(Nc2nccc(C(F)(F)F)n2)cc(-c2cnc(C3=CCSCC3)s2)c1 [Example 133, N-{3-[2-(3,6-dihydro-2H-thiopyran-4-yl)-1,3-thiazol-5-yl]-5-methylphenyl}-4-(trifluoromethyl)pyrimidin-2-amine] | < 100
16 | Cc1cc(Nc2nccc(C(F)(F)F)n2)cc(-c2cnc(C3(F)CCS(=O)(=O)CC3)s2)c1 [Example 134, N-{3-[2-(4-fluoro-1,1-dioxidotetrahydro-2H-thiopyran-4-yl)-1,3-thiazol-5-yl]-5-methylphenyl}-4-(trifluoromethyl)pyrimidin-2-amine] | < 100
17 | Cc1cc(Nc2nccc(C(F)(F)F)n2)cc(-c2cnc(C3=CCS(=O)(=O)CC3)s2)c1 [Example 135, N-{3-[2-(1,1-dioxido-3,6-dihydro-2H-thiopyran-4-yl)-1,3-thiazol-5-yl]-5-methylphenyl}-4-(trifluoromethyl)pyrimidin-2-amine] | < 100
18 | Cc1cc(Nc2nccc(C(F)(F)F)n2)cc(-c2cnc(C3CCSCC3)s2)c1 [Example 136, N-{3-methyl-5-[2-(tetrahydro-2H-thiopyran-4-yl)-1,3-thiazol-5-yl]phenyl}-4-(trifluoromethyl)pyrimidin-2-amine] | < 100

Next, values leading:

Row | IC50 [nM] | Compound
19 | < 100 | Cc1cc(Nc2nccc(C(F)(F)F)n2)cc(-c2cnc(-c3cnn4c3CCCC4)s2)c1 [Example 114-1]
20 | < 100 | Cc1cc(Nc2nccc(C(F)(F)F)n2)cc(-c2cnc(-c3cccnc3)s2)c1 [Example 114-3]
21 | < 100 | Cc1cc(Nc2nccc(C(F)(F)F)n2)cc(-c2cnc(-c3ccncc3)s2)c1 [Example 114-4]
22 | 100 to 1000 | Cc1cc(Nc2nccc(C(F)(F)F)n2)cc(-c2cnc(-c3cccs3)s2)c1 [Example 114-5]
23 | 100 to 1000 | Cc1cc(Nc2nccc(C(F)(F)F)n2)cc(-c2cnc(-c3ccsc3)s2)c1 [Example 114-6]
24 | < 100 | Cc1cc(Nc2nccc(C(F)(F)F)n2)cc(-c2cnc(-c3ccco3)s2)c1 [Example 114-7]
25 | < 100 | Cc1cc(Nc2nccc(C(F)(F)F)n2)cc(-c2cnc(-c3ccc[nH]3)s2)c1 [Example 114-8]

Same assay, conditions: rhSYK Activity, Table 113B

Row | IC50 [nM] | Compound
26 | 100 to 1000 | CCOC(=O)C1CC(C)C(O)(c2ncc(-c3cc(C)cc(Nc4nccc(C(F)(F)F)n4)c3)s2)CC1C (stereo not drawn) [Example 113B-20]
27 | < 100 | Cc1cc(Nc2nccc(C)n2)cc(-c2cnc(C3(O)CC(C)C(C(=O)O)C(C)C3)s2)c1 (stereo not drawn) [Example 113B-21]
28 | 100 to 1000 | Cc1cc(Nc2nccc(C)n2)cc(-c2cnc(C3(O)CC(C)C(C(=O)OC(C)C)C(C)C3)s2)c1 (stereo not drawn) [Example 113B-23]
29 | < 100 | Cc1cc(Nc2nccc(C(F)(F)F)n2)cc(-c2cnc(C3(O)CC(C)C(C(=O)O)C(C)C3)s2)c1 (stereo not drawn) [Example 113B-24]
30 | 1000 to 10000 | Cc1cc(Nc2nccc(C(F)(F)F)n2)cc(-c2cnc(C3(O)CC(C)C(C(=O)OC(C)C)C(C)C3)s2)c1 (stereo not drawn) [Example 113B-26]
31 | 100 to 1000 | Cc1cc(Nc2nccc(C(F)(F)F)n2)cc(-c2cnc(C3(O)CC(C)C(C(=O)OC(C)C)C(C)C3)s2)c1 (stereo not drawn) [Example 113B-27]
32 | < 100 | Cc1cc(Nc2nccc(C)n2)cc(-c2cnc(C3(O)C(C)CC(C(=O)O)CC3C)s2)c1 (stereo not drawn) [Example 113B-28]
33 | < 100 | CCOC(=O)C1CC(C)C(O)(c2ncc(-c3cc(C)cc(Nc4nccc(C)n4)c3)s2)C(C)C1 (stereo not drawn) [Example 113B-29]
34 | < 100 | Cc1cc(Nc2nccc(C(F)(F)F)n2)cc(-c2cnc(C3(O)C(C)CC(C(=O)O)CC3C)s2)c1 (stereo not drawn) [Example 113B-30]
35 | < 100 | CCOC(=O)C1CC(C)C(O)(c2ncc(-c3cc(C)cc(Nc4nccc(C(F)(F)F)n4)c3)s2)C(C)C1 (stereo not drawn) [Example 113B-31]

Same assay, conditions: rhSYK Activity, Table 113D, upper part

Row | IC50 [nM] | Compound
36 | < 100 | C=C(c1ccc(C(=O)O)cc1)c1ncc(-c2cc(C)cc(Nc3nccc(C(F)(F)F)n3)c2)s1 [Example 113D-1]
37 | 100 to 1000 | C=C(c1ccc(C(=O)OC)cc1)c1ncc(-c2cc(C)cc(Nc3nccc(C(F)(F)F)n3)c2)s1 [Example 113D-2]
38 | < 100 | Cc1cc(Nc2nccc(C(F)(F)F)n2)cc(-c2cnc(C3(c4ccc(C(=O)O)cc4)CC3)s2)c1 [Example 113D-3]
39 | < 100 | Cc1cc(Nc2nccc(C(F)(F)F)n2)cc(-c2cnc(C(C)(C)c3ccc(C(=O)O)cc3)s2)c1 [Example 113D-5]
40 | < 100 | Cc1cc(Nc2nccc(C(F)(F)F)n2)cc(-c2cnc(C(F)(F)c3ccc(C(=O)O)cc3)s2)c1 [Example 113D-7]
41 | 100 to 1000 | COC(=O)c1ccc(C(C)(C)c2ncc(-c3cc(C)cc(Nc4nccc(C(F)(F)F)n4)c3)s2)cc1 [Example 113D-9]

Same assay, conditions: rhSYK Activity, Table 115

Row | IC50 [nM] | Compound
42 | < 100 | Cc1cc(Nc2nccc(C(F)(F)F)n2)cc(-c2cnc(-c3cnn(C4CCOCC4)c3)s2)c1 [Example 115-1]
43 | < 100 | Cc1cc(Nc2nccc(C(F)(F)F)n2)cc(-c2cnc(-c3cnn(CCC#N)c3)s2)c1 [Example 115-2]
44 | < 100 | Cc1cc(Nc2nccc(C(F)(F)F)n2)cc(-c2cnc(-c3cnn(CCCO)c3)s2)c1 [Example 115-3]
45 | < 100 | Cc1cc(Nc2nccc(C(F)(F)F)n2)cc(-c2cnc(-c3cnn(C[C@@H](O)CO)c3)s2)c1 [Example 115-4]
46 | < 100 | Cc1cc(Nc2nccc(C(F)(F)F)n2)cc(-c2cnc(-c3cnn(CC(C)(C)O)c3)s2)c1 [Example 115-5]
47 | < 100 | Cc1cc(Nc2nccc(C(F)(F)F)n2)cc(-c2cnc(-c3cnn(C(CCO)C(=O)O)c3)s2)c1 (stereo not drawn) [Example 115-6]
48 | < 100 | Cc1cc(Nc2nccc(C(F)(F)F)n2)cc(-c2cnc(-c3cnn(CC4CNC(=O)O4)c3)s2)c1 (stereo not drawn) [Example 115-7]
